Measurements from US9102648B1, “Bioavailable diacylhydrazine ligands for modulating the expression of exogenous genes via an ecdysone receptor complex” (Intrexon Corporation, priority 2003, dated 2015).
Like-named read-outs stand apart in the source and are kept apart here.

Assays:
[1] = molecular target: T1, Bombyx mori EcR (VP16 fusion, CVBE switch construct) (Bombyx mori, UniProt P49881); experiment: Z3 Assay (HEK-293 cells with CVBE and 6XEcRE LacZ, β-galactosidase reporter); settings: for Fold Induction, Z3 Assay, 3.3 uM: 3.3 uM ligand; for Fold Induction, Z3 Assay, 3.3 uM / Fold Induction, Z3 Assay, 33 uM: ligand treated / DMSO treated cells; for Fold Induction, Z3 Assay, 33 uM: 33 uM ligand; for Z3 assay Rel Max FI: maximum fold induction at any concentration relative to that of GS-E ligand; for fold induction at 3.3 µM: HEK293, read-out: Fold Induction, Z3 Assay, 3.3 uM; for fold induction at 33 µM: HEK293, read-out: Fold Induction, Z3 Assay, 33 uM
T1 sequence (P49881 86-606): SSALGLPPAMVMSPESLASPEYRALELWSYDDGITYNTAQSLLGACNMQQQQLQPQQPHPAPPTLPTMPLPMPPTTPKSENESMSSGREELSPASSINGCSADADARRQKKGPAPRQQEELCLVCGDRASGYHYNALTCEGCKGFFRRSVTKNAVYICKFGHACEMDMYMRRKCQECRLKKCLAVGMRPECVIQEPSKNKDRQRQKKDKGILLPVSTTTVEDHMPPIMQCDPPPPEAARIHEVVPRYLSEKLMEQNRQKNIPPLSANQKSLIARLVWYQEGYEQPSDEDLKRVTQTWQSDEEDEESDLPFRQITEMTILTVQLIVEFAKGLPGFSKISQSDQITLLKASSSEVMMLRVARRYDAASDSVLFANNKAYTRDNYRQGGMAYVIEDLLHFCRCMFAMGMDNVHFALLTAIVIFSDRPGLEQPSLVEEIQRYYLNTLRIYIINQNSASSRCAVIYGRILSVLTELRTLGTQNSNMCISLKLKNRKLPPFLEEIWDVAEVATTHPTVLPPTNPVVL
T1 sequence (P19793 1-462 partner): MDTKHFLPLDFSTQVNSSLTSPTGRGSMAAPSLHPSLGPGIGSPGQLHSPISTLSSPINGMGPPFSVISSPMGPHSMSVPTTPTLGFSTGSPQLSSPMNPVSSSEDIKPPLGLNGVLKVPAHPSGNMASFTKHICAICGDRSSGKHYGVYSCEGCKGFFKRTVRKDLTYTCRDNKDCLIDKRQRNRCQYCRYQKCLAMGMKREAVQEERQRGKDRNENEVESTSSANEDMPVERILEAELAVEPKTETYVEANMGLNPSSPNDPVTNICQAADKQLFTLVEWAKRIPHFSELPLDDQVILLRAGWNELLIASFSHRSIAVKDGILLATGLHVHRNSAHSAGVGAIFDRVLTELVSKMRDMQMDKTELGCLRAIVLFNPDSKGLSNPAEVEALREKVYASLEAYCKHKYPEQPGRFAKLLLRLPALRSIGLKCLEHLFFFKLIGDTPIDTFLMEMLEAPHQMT

[2] = molecular target: GAL4 DBD-CfEcR(DEF)/VP16AD-MmRXRE (Choristoneura fumiferana, UniProt O77240); experiment: 13B3 Assay (CHO stable cell line, luciferase reporter); settings: for Fold Induction, 13B3 Assay, 33 uM: 33 uM ligand; for Fold Induction, 13B3 Assay, 33 uM / Fold Induction, 13B3 Assay, 3.3 uM: RLU ligand treated / RLU DMSO treated cells; for Fold Induction, 13B3 Assay, 3.3 uM: 3.3 uM ligand; for 13B3 assay Rel Max FI: maximum fold induction at any concentration relative to that of GS-E ligand, CHO 13B3 cells; for fold induction at 3.3 µM: read-out: Fold Induction, 13B3 Assay, 3.3 uM; for fold induction at 33 µM: read-out: Fold Induction, 13B3 Assay, 33 uM
Outline: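 CHO 13B3 clone stably expressing GAL4 DBD–CfEcR(DEF) and VP16AD–MmRXR(DE) with GAL4 RE–luciferase reporter; cells plated 24 h at 37 °C, then treated with ligands (DMSO stocks diluted 300-fold), 8 concentrations 33–0.01 μM.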

[3] = read-out: Z3 assay EC50, HEK-293 Z3 cells, β-galactosidase reporter, average of two wells
[4] = read-out: 13B3 EC50, CHO 13B3 stable cell line, luciferase reporter, 48 h, average of two wells

| SMILES | Fold Induction, Z3 Assay, 3.3 uM ([1]; average of two wells) | Fold Induction, Z3 Assay, 33 uM ([1]; average of two wells) | Z3 assay Rel Max FI ([1]; HEK-293 Z3 cells) | EC50 [1, 3] | Fold Induction, 13B3 Assay, 33 uM ([2]; average of two wells) | Fold Induction, 13B3 Assay, 3.3 uM ([2]; average of two wells) | 13B3 assay Rel Max FI [2] | EC50 [2, 4] | EC50 [1] | fold induction at 3.3 µM [1] | fold induction at 33 µM [1] | EC50 [2] | fold induction at 3.3 µM [2] | fold induction at 33 µM [2] |
| --- | --- | --- | --- | --- | --- | --- | --- | --- | --- | --- | --- | --- | --- | --- |
| Cc1c(C(=O)NN(C(=O)c2ccc(F)cc2)C(C)(C)C)ccc2c1OCCO2 [RG-100425] | 1128 | 592 | 1.180 | 99 nM | 747 |  |  |  |  |  |  |  |  |  |
| Cc1c(C(=O)NN(C(=O)c2ccc(F)cc2)C(C)(C)C)ccc2c1OCO2 [RG-100448] |  | 423 |  | 2820 nM | 2 |  |  |  |  |  |  |  |  |  |
| COc1ccccc1C(=O)N(NC(=O)c1ccc2c(c1)OCCO2)C(C)(C)C [RG-100492] |  | 143 |  | 8130 nM | 1002 |  |  |  |  |  |  |  |  |  |
| COc1cccc(C(=O)NN(C(=O)c2cc(C)cc(C)c2)C(C)(C)C)c1[N+](=O)[O-] [RG-100568] | 276 | 1193 | 0.855 | 3310 nM | 4122 | 2 | 1.035 | 44300 nM |  |  |  |  |  |  |
| COc1cccc(C(=O)NN(C(=O)c2cc(C)ccc2[N+](=O)[O-])C(C)(C)C)c1C [RG-100569] | 754 | 457 | 0.835 | 98 nM | 329 | 1710 | 0.773 | 185 nM |  |  |  |  |  |  |
| CCc1c(C(=O)NN(C(=O)c2ccccc2OC)C(C)(C)C)ccc2c1OCCO2 [RG-100690] | 779 | 475 | 1.008 | 240 nM | 500 | 1094 | 0.506 | 268 nM |  |  |  |  |  |  |
| CCc1c(C(=O)NN(C(=O)c2cccc(OC)c2)C(C)(C)C)ccc2c1OCCO2 [RG-100691] | 843 | 565 | 0.945 | 257 nM | 643 |  |  |  |  |  |  |  |  |  |
| COc1cccc(C(=O)NN(C(=O)c2cccc(C)c2)C(C)(C)C)c1C [RG-100694] | 1294 | 1288 | 1.157 | 389 nM | 2078 | 3385 | 0.632 | 405 nM |  |  |  |  |  |  |
| CCc1c(OC)cccc1C(=O)NN(C(=O)c1ccc2c(c1)OCO2)C(C)(C)C [RG-100699] |  | 415 |  | 2090 nM | 2296 |  |  |  |  |  |  |  |  |  |
| CCc1c(OC)cccc1C(=O)NN(C(=O)c1ccccc1OC)C(C)(C)C [RG-100725] |  | 511 |  |  | 581 |  |  |  |  |  |  |  |  |  |
| COc1ccc(OC)c(C(=O)N(NC(=O)c2cccc(C)c2C)C(C)(C)C)c1 [RG-100763] |  | 151 |  | 2140 nM | 2442 |  |  |  |  |  |  |  |  |  |
| COc1ccc(C)cc1C(=O)N(NC(=O)c1cccc(OC)c1C)C(C)(C)C [RG-100766] | 921 | 474 | 1.194 | 174 nM | 391 |  |  |  |  |  |  |  |  |  |
| COc1cc(C)cc(C(=O)N(NC(=O)c2cccc(OC)c2C)C(C)(C)C)c1 [RG-100767] | 825 | 371 | 0.996 | 251 nM | 682 | 4504 | 0.920 | 1060 nM |  |  |  |  |  |  |
| CC(C)(C)N(NC(=O)c1ccc(Cl)cc1)C(=O)c1ccccc1 [RG-100864] |  |  |  |  |  |  |  |  | 2240 nM | 63 | 840 | 1160 nM | 318 | 187 |
| COc1cccc(C(=O)NN(C(=O)c2cc(Cl)c(F)c(Cl)c2)C(C)(C)C)c1C [RG-101382, N-(3-methoxy-2-methylbenzoyl)-N′-(3,5-dichloro-4-fluorobenzoyl)-N′-tert-butylhydrazine] |  |  | 0.951 |  |  |  | 0.915 |  | 66 nM | 725 | 426 | 588 nM | 13100 | 1010 |
| CCc1c(C(=O)NN(C(=O)c2cc(C)cc(Cl)c2)C(C)(C)C)ccc2c1OCCO2 [RG-101494, N-(5-ethyl-1,4-benzodioxan-6-carbonyl)-N′-(tert-butyl)-N′-(3-chloro-5-methylbenzoyl)hydrazine] |  |  | 1.093 |  |  |  | 0.822 |  | 79 nM | 832 | 384 | 148 nM | 755 | 613 |
| CCc1ccc(C(=O)NN(C(=O)c2cc(C)cc(C)c2)C(C)(C)C)c(F)c1 [RG-101523, 3,5-Dimethyl-benzoic acid N-tert-butyl-N′-(4-ethyl-2-fluoro-benzoyl)-hydrazide] |  |  |  |  |  |  | 0.772 |  | 242 nM | 704 | 596 | 2370 nM | 831 | 718 |
| CCc1ccc(C(=O)NN(C(=O)c2cc(C)cc(C)c2)C(C)(C)C)cc1 [RG-102125] |  |  |  |  |  |  |  |  | 174 nM |  |  | 479 nM |  |  |
| CCc1c(OC)cccc1C(=O)NN(C(=O)c1cc(C)cc(C)c1)C(C)(C)C [RG-102240, N-(3-methoxy-2-ethylbenzoyl)-N′-(3,5-dimethylbenzoyl)-N′-tert-butylhydrazine] |  |  | 1 |  |  |  | 1 |  | 286 nM |  |  | 500 nM |  |  |
| Cc1cc(C)cc(C(=O)N(NC(=O)c2ccc3c(c2C)OCCO3)C(C)(C)C)c1 [RG-102317, N-(5-methyl-1,4-benzodioxan-6-carbonyl)-N′-(tert-butyl)-N′-(3,5-dimethylbenzoyl)hydrazine] |  |  |  |  |  |  |  |  |  | 416 | 1500 | 345 nM | 2420 | 814 |
